Reference: publication PMC8325676, “The tea plant CsLHT1 and CsLHT6 transporters take up amino acids, as a nitrogen source, from the soil of organic tea plantations” (Horticulture Research, 2021)

Legend:
CsLHT1 = conditions: 10-500 µM 15N-Glu, 10 min, 30°C; labelled compound
[1] = substrate: N[C@@H](CCC(=O)O)C(=O)O; test: cells, lysate or membranes; type: cell-based, Camellia sinensis; conditions: 0.5-20 mM 15N-Glu, 10 min, 30°C, labelled compound

Km (CsLHT1) [µM]	Molecule	Km [1] [µM]
39.9	N[C@@H](CCC(=O)O)C(=O)O [15N-Glu]	
	CsLHT6 (Camellia sinensis) (protein, cloned from root cDNA) MVSNSPPAPKEVPTEEDQWTEKGPPREAKWWYSTFHTVTAMVGAGVLSLPYAMAYLGWGPGTMLLVFSWCITLNTMWQMIQLHECVPGVRFDHYYDLGRHAFGPKLGPWIVLPQQLIVQVGCDIVYMVTGGKCLKKFMEIVCTNCTRIKQSYWICIFGSTHFFLSQLPNFNSVSGVSLAAAIMSLSYSTIAWVGCLSKGRVENVSYAYKKTSGADSMFRVFNALGEITFAYAGHAVVLEIQATVPSTPEMPSKVPMWKGAVWAYFINAICYFPVALIGYWAFGQDVADNVLVALERPSWLIAAANLMVVIHVIGSYQVYAMPVFDLLEKAMVKRLSFPPGIGLRIIVRSAYVAFTLFVGVTFPFFGDLLGFFGGFGFAPTSYFLPSIIWLIIKKPKRFSISWFINWACIYIGVFVMLASTIGGLRNIVIDSSTYEFYS	2500
